The record followed here is ChEMBL document CHEMBL6092126, “Inhibitors of Rickettsia prowazekii methionine aminopeptidase 1 identified from the Pandemic Response Box” (Bioorg Med Chem Lett, 2024).

The structures appear in SMILES notation.

For orientation: IC50 means the point on the concentration scale where inhibition reaches its midpoint. Read a high IC50 as lower potency. By inhibition is commonly meant the percentage by which the read-out fell short of the control.

Test [1] in a line: Inhibition of Rickettsia prowazekii methionine aminopeptidase 1 using methionine-aminomethylcoumarin as substrate preincubated for 1 hrs followed by substrate addition and measured after 30 mins by fluorescence based plate reader analysis.
The nature of test [2]: Inhibition of Rickettsia prowazekii methionine aminopeptidase 1 using methionine-aminomethylcoumarin as substrate at 10 uM preincubated for 1 hrs followed by substrate addition and measured after 30 mins by fluorescence based plate reader analysis relative to control. The settings on record: time 1.5 hrs.

Regarding `O=[N+]([O-])/C(Br)=C/c1ccc(Br)o1`, half-maximal inhibition in test [1] (IC50) required 2.9 µM. In test [2], this compound returned an inhibition of over 60%.

Turning to `O=C(CP(=O)(O)O)NCCc1cccc(Oc2ccccc2)c1`, in test [1], 7 µM corresponded to half-maximal inhibition (IC50). This compound also showed an inhibition in test [2] of over 60%.

Turning to `Fc1ccc(-n2cc(Cn3c(-c4cccc(F)c4)nc4ccccc43)nn2)cc1`, in test [1], the IC50 turned out to be 4.1 µM. In addition, the inhibition in test [2] was over 60%.

As to `CN(C)CCCNC(=O)c1ccc(-c2cc(O)c3ncccc3c2)cc1`, the IC50 in test [1] came out at 0.34 µM. In test [2], this compound came in with an inhibition of over 60%.

Regarding `O=C1c2cccc3cccc(c23)C(=O)N1CC1CO1` (centres undefined), it took 4.8 µM to reach half-maximal inhibition in test [1] (IC50). In addition, the inhibition in test [2] is over 60%.

In the case of `CONC(=N)c1ccc(-c2ccc(-c3ccc(C(=N)NOC)cc3)o2)cc1` [PAFURAMIDINE], the IC50 in test [1] was determined as 2.9 µM. The same compound returned an inhibition in test [2] of over 60%.

In turn, `C[C@@H](c1nc(-c2ccc(C#N)cc2)cs1)[C@](O)(Cn1cncn1)c1ccc(F)cc1F` [RAVUCONAZOLE] registered an IC50 in test [1] of 5.2 µM. Besides, the inhibition in test [2] is over 60%.

The compound `COc1ccc(C)cc1NC(=O)c1ccc(S(=O)(=O)N2CCCCC2)cc1` yielded an IC50 in test [1] of 2.4 µM. This compound showed an inhibition in test [2] of over 60%.

`Cc1ccc(Oc2ccccc2-c2csc(N=C3NCCCN3)n2)c(C)c1` [ABAFUNGIN] showed an IC50 in test [1] of 5.4 µM. The compound also showed an inhibition in test [2] of over 60%.

As to `COc1cc(Cc2cnc(N)nc2N)cc(OC)c1OC` [TRIMETHOPRIM], in test [1], the IC50 came out at 5.1 µM. Moreover, in test [2], the inhibition was over 60%.

For the compound `O=C(NCc1ccc(F)cc1)c1c(O)c2ncccc2[nH]c1=O`, inhibition in test [1] was half-maximal at 1.9 µM (IC50). In test [2], this compound registered an inhibition of over 60%.

On to `CCCCCCC1c2ccc(O)cc2Oc2cc(O)ccc21`, for which, in test [1], half-maximal inhibition (IC50) required 10 µM. The compound further displayed an inhibition in test [2] of over 60%.

In the case of `CN(O)C(=O)c1cc2c(CN3CCC[C@H]3C(N)=O)cn(Cc3ccc(F)cc3)c2cn1`, in test [1], half-maximal inhibition (IC50) was put at 4.2 µM. Also, in test [2], the inhibition is over 60%.

In turn, `O=C(O)c1ccc(-n2nc(-c3ccccc3O)nc2-c2ccccc2O)cc1` [DEFERASIROX] displayed an IC50 in test [1] of 2.1 µM. Also, the inhibition in test [2] is over 60%.

As to `Oc1cccc(C(Nc2nccs2)c2ccc3cccnc3c2O)c1` (centres undefined), the IC50 in test [1] came to 1.4 µM. This compound also returned an inhibition in test [2] of over 60%.

As for `Cc1cc(-c2ccccc2)c(C(=O)C(=O)Nc2ccc(N3CCN(c4ncc(F)cn4)CC3)cc2)n1C` [OLOROFIM], in test [1], the IC50 turned out to be 4.2 µM. The inhibition in test [2] is over 60%.

In test [1], `Nc1nc(=O)[nH]cc1F` [FLUCYTOSINE] had an IC50 of 6.9 µM. The inhibition in test [2] was over 60%.

In test [1], `O=C(Nc1nnc(-c2ccc(Cl)cc2)o1)c1nc2ccccc2s1` registered an IC50 of 5.5 µM. In addition, in test [2], the inhibition was over 60%.

Consider `O=C(O)c1ccc(-c2ccccc2Cl)o1`, for which inhibition in test [1] was half-maximal at 2.4 µM (IC50).

Regarding `O=c1cc(Nc2ccc3ccccc3c2)[nH]c(=O)[nH]1`, in test [1], 1.8 µM corresponded to half-maximal inhibition (IC50). The same compound yielded an inhibition in test [2] of over 60%.
